# Target: T1, bacteriorhodopsin (Halobacterium salinarum, UniProt P02945)
# T1 construct: gene bop; synthetic gene (GeneArt), start codon from vector, C-terminal triple StrepII tag, transiently expressed retinal-free in HEK293-EBNA1, purified in DDM; cysteine-free parent protein
# T1 sequence (P02945 14-262): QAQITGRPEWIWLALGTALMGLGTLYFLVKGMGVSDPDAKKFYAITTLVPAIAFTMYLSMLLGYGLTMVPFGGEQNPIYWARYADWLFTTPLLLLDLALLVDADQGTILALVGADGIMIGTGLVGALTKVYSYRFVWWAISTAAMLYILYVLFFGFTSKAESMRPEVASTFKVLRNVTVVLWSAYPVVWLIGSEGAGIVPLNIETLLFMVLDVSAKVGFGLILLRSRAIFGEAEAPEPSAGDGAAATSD
# Experiment: native mass spectrometry of purified protein
# Type: binding
# Conditions: retinal added during purification; DDM micelles; 150 mM ammonium acetate pH 7.5; isomer not stated
compound,measurement,value
CC1=C(/C=C/C(C)=C/C=C/C(C)=C/C=O)C(C)(C)CCC1 [retinal],native mass spectrometry of purified protein,"Upon addition of retinal during purification, bacteriorhodopsin mass spectra indicated peaks corresponding to the mass"

# From paper PMC5668376, “Stochastic palmitoylation of accessible cysteines in membrane proteins revealed by native mass spectrometry” (Nature Communications, 2017)
